Experimental data as given in patent US10316039B2, “P2X3 and/or P2X2/3 compounds and methods” (Asana Biosciences, LLC, priority 2013, dated 2019).

Molecular target: T1, P2X2/3 (Homo sapiens, UniProt P56373+Q9UBL9)
T1 sequence (Q9UBL9 1-471): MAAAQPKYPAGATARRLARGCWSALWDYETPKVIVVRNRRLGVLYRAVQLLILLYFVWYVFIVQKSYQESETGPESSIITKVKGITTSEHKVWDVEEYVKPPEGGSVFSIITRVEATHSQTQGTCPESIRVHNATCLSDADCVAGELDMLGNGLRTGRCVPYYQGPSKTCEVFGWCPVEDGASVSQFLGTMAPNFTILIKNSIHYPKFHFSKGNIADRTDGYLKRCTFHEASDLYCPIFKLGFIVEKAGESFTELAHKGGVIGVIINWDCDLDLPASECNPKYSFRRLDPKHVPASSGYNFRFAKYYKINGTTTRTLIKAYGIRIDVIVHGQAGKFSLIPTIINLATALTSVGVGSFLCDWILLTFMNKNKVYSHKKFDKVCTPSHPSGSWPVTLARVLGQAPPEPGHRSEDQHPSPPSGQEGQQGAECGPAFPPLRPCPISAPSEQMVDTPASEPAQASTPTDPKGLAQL
T1 sequence (P56373 1-397): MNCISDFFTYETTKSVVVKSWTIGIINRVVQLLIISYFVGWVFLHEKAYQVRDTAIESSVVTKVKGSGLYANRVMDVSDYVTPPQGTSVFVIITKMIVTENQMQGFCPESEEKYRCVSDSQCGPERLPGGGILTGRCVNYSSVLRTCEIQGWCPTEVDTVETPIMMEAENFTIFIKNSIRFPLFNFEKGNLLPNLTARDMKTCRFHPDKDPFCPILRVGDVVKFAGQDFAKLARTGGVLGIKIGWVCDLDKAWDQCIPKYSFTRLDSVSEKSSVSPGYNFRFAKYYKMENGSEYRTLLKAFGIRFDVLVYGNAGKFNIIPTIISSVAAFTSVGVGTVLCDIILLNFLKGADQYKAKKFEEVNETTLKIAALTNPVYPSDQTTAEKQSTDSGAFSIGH
Assay: P2X2/3 FLIPR intracellular calcium assay
Type: cell-based
Details: agonist at EC75, species (human or rat) not given
Method in brief: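 Stable human P2X2/3 TRex293 cells (doxycycline-induced) loaded with Calcium 4 dye; compounds, 11-point half-log series from 2 mM top stock, preincubated 15 min at RT in HBSS/HEPES pH 7.4 with 1.8 mM CaCl2. Agonist added at EC75; fluorescence change versus no-compound wells gave IC50.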

| IC50 [µM] | Compound |
| --- | --- |
| 0.001 to 0.1 | C[C@H](NC(=O)c1cc(-n2nncc2C(F)F)c2ncc(-c3ccc(Cl)s3)n2c1)c1nnc[nH]1 [Example 38] |
| 0.001 to 0.1 | CC[C@H](NC(=O)c1cc(-n2nncc2C(F)F)c2ncc(-c3ccc(C)s3)n2c1)c1nnc[nH]1 [Example 52] |
| 0.001 to 0.1 | CCc1cnnn1-c1cc(C(=O)NCc2ccc(C)nc2)cn2c(-c3ccc(C)s3)cnc12 [Example 22] |
